Each block holds one molecule with its values, some of them ahead of it.
System: 958667-338-R-J2-PDC tumor spheroids viability
Experiment: Anticancer human tumor 958667-338-R-J2-PDC patient-derived colon adenocarcinoma cell line growth inhibition [PI3K]
Conditions: spheroids with HUVEC and MSC; for IC50: curve of first compound; for viability, T/C: stronger effect = lower value
Procedure, shortened: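 Stroma-containing spheroids: tumor line, pooled-donor HUVEC, hMSC. Treatments: targeted agents with PI3K inhibitors. Dosing: clinically relevant, half-log spacing, 10 microM ceiling without known Cmax. Read-out: cell viability.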
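Also: spheroids exposed to compounds for seven days before readout.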

- IC50 (second compound 0.0316 µM): > 10000 nM
- IC50 (second compound 0.1 µM): > 10000 nM
- IC50 (second compound 0.316 µM): > 10000 nM
- IC50 (second compound 1 µM): > 10000 nM
- IC50 (second compound 3.16 µM): > 10000 nM
- IC50 (second compound 10 µM): > 10000 nM
SMILES: CNC(=O)c1ccc(N2C(=S)N(c3ccc(C#N)c(C(F)(F)F)c3)C(=O)C2(C)C)cc1F + Cc1nc(NC(=O)N2CCCC2C(N)=O)sc1-c1ccnc(C(C)(C)C(F)(F)F)c1
- viability, T/C (second compound 0.0316 µM, first compound 0.0316 µM): 109%
- viability, T/C (second compound 0.0316 µM, first compound 0.1 µM): 94.6%
- viability, T/C (second compound 0.0316 µM, first compound 0.316 µM): 93.8%
- viability, T/C (second compound 0.0316 µM, first compound 1 µM): 131%
- viability, T/C (second compound 0.0316 µM, first compound 3.16 µM): 101%
- viability, T/C (second compound 0.0316 µM, first compound 10 µM): 90.5%
- viability, T/C (second compound 0.1 µM, first compound 0.0316 µM): 105%
- viability, T/C (second compound 0.1 µM, first compound 0.1 µM): 112%
- viability, T/C (second compound 0.1 µM, first compound 0.316 µM): 103%
- viability, T/C (second compound 0.1 µM, first compound 1 µM): 91.9%
- viability, T/C (second compound 0.1 µM, first compound 3.16 µM): 134%
- viability, T/C (second compound 0.1 µM, first compound 10 µM): 93.2%
- viability, T/C (second compound 0.316 µM, first compound 0.0316 µM): 78.9%
- viability, T/C (second compound 0.316 µM, first compound 0.1 µM): 102%
- viability, T/C (second compound 0.316 µM, first compound 0.316 µM): 93.2%
- viability, T/C (second compound 0.316 µM, first compound 1 µM): 76.4%
- viability, T/C (second compound 0.316 µM, first compound 3.16 µM): 98%
- viability, T/C (second compound 0.316 µM, first compound 10 µM): 93.6%
- viability, T/C (second compound 1 µM, first compound 0.0316 µM): 74.5%
- viability, T/C (second compound 1 µM, first compound 0.1 µM): 71.2%
- viability, T/C (second compound 1 µM, first compound 0.316 µM): 88%
- viability, T/C (second compound 1 µM, first compound 1 µM): 70.8%
- viability, T/C (second compound 1 µM, first compound 3.16 µM): 97.7%
- viability, T/C (second compound 1 µM, first compound 10 µM): 82.4%
- viability, T/C (second compound 3.16 µM, first compound 0.0316 µM): 76.9%
- viability, T/C (second compound 3.16 µM, first compound 0.1 µM): 69%
- viability, T/C (second compound 3.16 µM, first compound 0.316 µM): 64.3%
- viability, T/C (second compound 3.16 µM, first compound 1 µM): 78.5%
- viability, T/C (second compound 3.16 µM, first compound 3.16 µM): 72.3%
- viability, T/C (second compound 3.16 µM, first compound 10 µM): 65.2%
- viability, T/C (second compound 10 µM, first compound 0.0316 µM): 65.2%
- viability, T/C (second compound 10 µM, first compound 0.1 µM): 67.3%
- viability, T/C (second compound 10 µM, first compound 0.316 µM): 58.6%
- viability, T/C (second compound 10 µM, first compound 1 µM): 62.1%
- viability, T/C (second compound 10 µM, first compound 3.16 µM): 60.9%
- viability, T/C (second compound 10 µM, first compound 10 µM): 46.9%

- IC50 (second compound 0.0316 µM): 413 nM
- IC50 (second compound 0.1 µM): 328 nM
- IC50 (second compound 0.316 µM): 108 nM
- IC50 (second compound 1 µM): 58.5 nM
- IC50 (second compound 3.16 µM): 66 nM
- IC50 (second compound 10 µM): 14.2 nM
SMILES: Cn1cnc2c(F)c(Nc3ccc(Br)cc3Cl)c(C(=O)NOCCO)cc21 + Cc1nc(NC(=O)N2CCCC2C(N)=O)sc1-c1ccnc(C(C)(C)C(F)(F)F)c1
- viability, T/C (second compound 0.0316 µM, first compound 0.00949 µM): 99.2%
- viability, T/C (second compound 0.0316 µM, first compound 0.03 µM): 81.9%
- viability, T/C (second compound 0.0316 µM, first compound 0.0949 µM): 73.6%
- viability, T/C (second compound 0.0316 µM, first compound 0.3 µM): 56.9%
- viability, T/C (second compound 0.0316 µM, first compound 0.949 µM): 35.1%
- viability, T/C (second compound 0.0316 µM, first compound 3 µM): 15.8%
- viability, T/C (second compound 0.1 µM, first compound 0.00949 µM): 96.1%
- viability, T/C (second compound 0.1 µM, first compound 0.03 µM): 95.3%
- viability, T/C (second compound 0.1 µM, first compound 0.0949 µM): 60.3%
- viability, T/C (second compound 0.1 µM, first compound 0.3 µM): 52.3%
- viability, T/C (second compound 0.1 µM, first compound 0.949 µM): 36.4%
- viability, T/C (second compound 0.1 µM, first compound 3 µM): 12.7%
- viability, T/C (second compound 0.316 µM, first compound 0.00949 µM): 94.8%
- viability, T/C (second compound 0.316 µM, first compound 0.03 µM): 69%
- viability, T/C (second compound 0.316 µM, first compound 0.0949 µM): 52.7%
- viability, T/C (second compound 0.316 µM, first compound 0.3 µM): 35.5%
- viability, T/C (second compound 0.316 µM, first compound 0.949 µM): 21.9%
- viability, T/C (second compound 0.316 µM, first compound 3 µM): 11.9%
- viability, T/C (second compound 1 µM, first compound 0.00949 µM): 80%
- viability, T/C (second compound 1 µM, first compound 0.03 µM): 63%
- viability, T/C (second compound 1 µM, first compound 0.0949 µM): 40.3%
- viability, T/C (second compound 1 µM, first compound 0.3 µM): 24%
- viability, T/C (second compound 1 µM, first compound 0.949 µM): 14.7%
- viability, T/C (second compound 1 µM, first compound 3 µM): 7.55%
- viability, T/C (second compound 3.16 µM, first compound 0.00949 µM): 50.3%
- viability, T/C (second compound 3.16 µM, first compound 0.03 µM): 63.5%
- viability, T/C (second compound 3.16 µM, first compound 0.0949 µM): 46.2%
- viability, T/C (second compound 3.16 µM, first compound 0.3 µM): 16.4%
- viability, T/C (second compound 3.16 µM, first compound 0.949 µM): 11%
- viability, T/C (second compound 3.16 µM, first compound 3 µM): 3.01%
- viability, T/C (second compound 10 µM, first compound 0.00949 µM): 56.8%
- viability, T/C (second compound 10 µM, first compound 0.03 µM): 37.7%
- viability, T/C (second compound 10 µM, first compound 0.0949 µM): 12.8%
- viability, T/C (second compound 10 µM, first compound 0.3 µM): 9.46%
- viability, T/C (second compound 10 µM, first compound 0.949 µM): 5.65%
- viability, T/C (second compound 10 µM, first compound 3 µM): 1.13%

Source: PubChem BioAssay AID1963963 (Molecular Pharmacology Branch, DTP, NCI, 2024)
